# Where “and” joins values, the source holds several entries; their conditions need not be identical. Identical values can stand only once. Residues, ends and D or L forms follow the SMILES beside them.
# Legend:
# [1] = system: K. pneumoniae ATCC 700603; test: Membrane permeability, SYTOX Green; assay type: cell-based, Klebsiella pneumoniae
# Procedure: Fluorescent probe SYTOX^TM Green (Invitrogen/ Life Technologies, S7020) was used to analyze the effect of HT2 and RI-HT2 on membrane permeability of MRSA USA 300 and K. pneumoniae ATCC 700603 as described elsewhere. SYTOX^TM Green is a DNA binding dye that is fluorescent when bound to nucleic acids and only enters cells with compromised plasma membranes. MRSA USA 300 and K. pneumoniae ATCC 700603 were cultured in LB broth to mid log phase at 37 °C and washed with PBS and resuspended (OD595 ≈ 0.1) in the same buffer. SYTOX^TM Green was added into the cell suspension with a final concentration of 5 μM and being kept in dark for 20 min. 98 µL pre-treated cell suspension was transferred into wells of 96-well glass black plates. Then, 2 µL of compound or DMSO were added to initiate the reaction. The final concentrations of HT2 and RI-HT2 were 1 ×, 2 ×, 4 × and 8 × MIC. Fluorescence strength was measured with excitation/emission wavelength of 485/528 nm every 5 min for 60 min.
# [2] = system: K. pneumoniae ATCC 700603; test: Time-kill assay; assay type: cell-based, Klebsiella pneumoniae
# Procedure: Time-kill assays were done in tubes (in 1.5 mL of LB) and antibiotics at the 1 ×, 2 ×, 4 × and 8 × MIC. Tubes were inoculated (5 × 10^6 CFU/mL) with MRSA USA 300 and K. pneumoniae ATCC 700603 and incubated at 37 °C under shaking. Serial dilutions of the cultures were plated at each desired time point (0, 1, 3, 6, and 24 h), using a multichannel pipette as follows: in line 1 of a 96-well plate, 100 µL of bacterial suspension was added, while 90 µL of 0.9% sterile saline per well was added to the other lines. At selected time points, 100 µL of bacterial suspension was transferred from the time-kill assay plate to the first line. The wells were further diluted 1 in 10 (0.9% saline) for the appropriate number of dilutions and 10 μL of each dilution was spotted in duplicate onto MH agar plates, then incubated overnight at 37°C. The colonies in each spot were counted and used to calculate the number of viable CFU/mL remaining in the original culture by considering the dilution factors.
smiles,measurement,setting,value
CC[C@H](C)[C@H](NC(=O)[C@H](CCCNC(=N)N)NC(=O)[C@H](CCCNC(=N)N)NC(=O)[C@H](CC(C)C)NC(=O)[C@H](Cc1ccccc1)NC(=O)[C@@H](N)CCCNC(=N)N)C(=O)N[C@@H](Cc1ccccc1)C(=O)N[C@@H](Cc1ccccc1)C(=O)N[C@@H](Cc1ccccc1)C(=O)N[C@@H](Cc1ccccc1)C(N)=O [HT2] (H-RFLRRIFFFF-NH2),Fluorescence intensity,"[1]; 2 × MIC, time 0 min",501695 and 509033 and 502622
same,Fluorescence intensity,"[1]; 2 × MIC, time 5 min",1090890 and 1043729 and 1064139
same,Fluorescence intensity,"[1]; 2 × MIC, time 10 min",1729072 and 1765938 and 1671967
same,Fluorescence intensity,"[1]; 2 × MIC, time 15 min",2450918 and 2522662 and 2381578
same,Fluorescence intensity,"[1]; 2 × MIC, time 20 min",3050480 and 3158194 and 2985766
same,Fluorescence intensity,"[1]; 2 × MIC, time 25 min",3669210 and 3714426 and 3535044
same,Fluorescence intensity,"[1]; 2 × MIC, time 30 min",4083450 and 4189312 and 4054249
same,Fluorescence intensity,"[1]; 2 × MIC, time 35 min",4565952 and 4682018 and 4543315
same,Fluorescence intensity,"[1]; 4 × MIC, time 0 min",525974 and 544262 and 540364
same,Fluorescence intensity,"[1]; 4 × MIC, time 5 min",1702985 and 1566300 and 1596913
same,Fluorescence intensity,"[1]; 4 × MIC, time 10 min",2584709 and 2629728 and 2589896
same,Fluorescence intensity,"[1]; 4 × MIC, time 15 min",4158305 and 4176033 and 4135763
same,Fluorescence intensity,"[1]; 4 × MIC, time 20 min",5327990 and 5380046 and 5341458
same,Fluorescence intensity,"[1]; 4 × MIC, time 25 min",6471332 and 6483549 and 6409400
same,Fluorescence intensity,"[1]; 4 × MIC, time 30 min",7570513 and 7493394 and 7434627
same,Fluorescence intensity,"[1]; 4 × MIC, time 35 min",8228675 and 8284610 and 8343092
same,Fluorescence intensity,"[1]; 8 × MIC, time 0 min",870465 and 760375 and 885415
same,Fluorescence intensity,"[1]; 8 × MIC, time 5 min",1479590 and 1252173 and 1198504
same,Fluorescence intensity,"[1]; 8 × MIC, time 10 min",2304082 and 2051490 and 2261553
same,Fluorescence intensity,"[1]; 8 × MIC, time 15 min",3691170 and 2983585 and 3730581
same,Fluorescence intensity,"[1]; 8 × MIC, time 20 min",5088194 and 4586923 and 5243088
same,Fluorescence intensity,"[1]; 8 × MIC, time 25 min",6892750 and 6059584 and 6984752
same,Fluorescence intensity,"[1]; 8 × MIC, time 30 min",8250478 and 7253838 and 8382724
same,Fluorescence intensity,"[1]; 8 × MIC, time 35 min",8870007 and 7712378 and 8970308
same,Fluorescence intensity,"[1]; 8 × MIC, time 40 min",10334018
same,Fluorescence intensity,"[1]; MIC, time 0 min",550162 and 549500 and 565924
same,Fluorescence intensity,"[1]; MIC, time 5 min",788019 and 747687 and 700922
same,Fluorescence intensity,"[1]; MIC, time 10 min",953632 and 962086 and 882779
same,Fluorescence intensity,"[1]; MIC, time 15 min",1211256 and 1113347 and 1136029
same,Fluorescence intensity,"[1]; MIC, time 20 min",1429978 and 1306982 and 1354221
same,Fluorescence intensity,"[1]; MIC, time 25 min",1431312 and 1479927 and 1452172
same,Fluorescence intensity,"[1]; MIC, time 30 min",1813062 and 1687978 and 1751083
same,Fluorescence intensity,"[1]; MIC, time 35 min",1966664 and 1821317 and 1900107
same,Fluorescence intensity,"[1]; MIC, time 40 min",2166119 and 2083647 and 2111537
same,time to highest SYTOX Green fluorescence intensity,[1]; dose-dependent,≤ 40 min
same,"viable count, time-kill","[2]; 2 × MIC, 0 h",3000000 CFU/mL and 3500000 CFU/mL and 3400000 CFU/mL
same,"viable count, time-kill","[2]; 2 × MIC, 1 h",275000 CFU/mL and 375000 CFU/mL and 310000 CFU/mL
same,"viable count, time-kill","[2]; 2 × MIC, 3 h",33000 CFU/mL and 31000 CFU/mL
same,"viable count, time-kill","[2]; 2 × MIC, 6 h",14000 CFU/mL and 18000 CFU/mL and 16000 CFU/mL
same,"viable count, time-kill","[2]; 2 × MIC, 24 h",18000 CFU/mL and 24000 CFU/mL and 23000 CFU/mL
same,"viable count, time-kill","[2]; 4 × MIC, 0 h",3000000 CFU/mL and 3500000 CFU/mL and 3400000 CFU/mL
same,"viable count, time-kill","[2]; 4 × MIC, 1 h",70000 CFU/mL and 65000 CFU/mL and 66000 CFU/mL
same,"viable count, time-kill","[2]; 4 × MIC, 6 h",8000 CFU/mL and 7400 CFU/mL and 9000 CFU/mL
same,"viable count, time-kill","[2]; 4 × MIC, 24 h",16000 CFU/mL and 21000 CFU/mL and 19000 CFU/mL
same,"viable count, time-kill","[2]; 8 × MIC, 0 h",3000000 CFU/mL and 3500000 CFU/mL and 3400000 CFU/mL

# — publication PMC10657444, “Design and evaluation of tadpole-like conformational antimicrobial peptides” (Communications Biology, 2023)
